The record followed here is BindingDB's records for PubMed 7751958 (Cnrs Ccipe, 1995).

Where “and” joins values, the source holds several entries; their conditions need not be identical. Identical values can stand only once.

Experiment [1] addresses Glutamate metabotropic receptor 1 (Sus scrofa, UniProt F1S737).
Experiment [2] has as its target Glutamate metabotropic receptor 5 (Cavia porcellus, UniProt H0VDS0).

Chain of Glutamate metabotropic receptor 1 (F1S737 whole entry): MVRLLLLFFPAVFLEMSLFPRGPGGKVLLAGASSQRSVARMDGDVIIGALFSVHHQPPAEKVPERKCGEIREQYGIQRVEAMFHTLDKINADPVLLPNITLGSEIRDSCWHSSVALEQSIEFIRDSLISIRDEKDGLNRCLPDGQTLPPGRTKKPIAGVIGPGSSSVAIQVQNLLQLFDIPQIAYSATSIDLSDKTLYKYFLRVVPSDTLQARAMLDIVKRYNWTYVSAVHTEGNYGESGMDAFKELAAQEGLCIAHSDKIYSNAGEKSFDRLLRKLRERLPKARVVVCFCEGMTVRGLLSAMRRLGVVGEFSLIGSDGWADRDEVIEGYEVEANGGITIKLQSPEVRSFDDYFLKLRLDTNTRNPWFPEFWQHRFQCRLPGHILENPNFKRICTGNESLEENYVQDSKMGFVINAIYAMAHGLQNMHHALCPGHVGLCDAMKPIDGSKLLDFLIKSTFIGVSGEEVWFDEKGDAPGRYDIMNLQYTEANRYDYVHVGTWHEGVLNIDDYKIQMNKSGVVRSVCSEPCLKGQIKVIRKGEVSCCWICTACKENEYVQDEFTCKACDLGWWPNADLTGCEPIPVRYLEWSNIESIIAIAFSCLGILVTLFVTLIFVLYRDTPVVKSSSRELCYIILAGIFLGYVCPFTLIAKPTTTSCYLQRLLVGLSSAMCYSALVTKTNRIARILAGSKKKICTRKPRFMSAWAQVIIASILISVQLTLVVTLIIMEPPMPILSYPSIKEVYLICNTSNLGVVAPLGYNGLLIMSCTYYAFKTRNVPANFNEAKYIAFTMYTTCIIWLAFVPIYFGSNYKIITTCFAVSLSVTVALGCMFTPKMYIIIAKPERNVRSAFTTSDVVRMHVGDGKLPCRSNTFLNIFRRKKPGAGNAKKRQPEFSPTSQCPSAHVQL
Chain of Glutamate metabotropic receptor 5 (H0VDS0 whole entry): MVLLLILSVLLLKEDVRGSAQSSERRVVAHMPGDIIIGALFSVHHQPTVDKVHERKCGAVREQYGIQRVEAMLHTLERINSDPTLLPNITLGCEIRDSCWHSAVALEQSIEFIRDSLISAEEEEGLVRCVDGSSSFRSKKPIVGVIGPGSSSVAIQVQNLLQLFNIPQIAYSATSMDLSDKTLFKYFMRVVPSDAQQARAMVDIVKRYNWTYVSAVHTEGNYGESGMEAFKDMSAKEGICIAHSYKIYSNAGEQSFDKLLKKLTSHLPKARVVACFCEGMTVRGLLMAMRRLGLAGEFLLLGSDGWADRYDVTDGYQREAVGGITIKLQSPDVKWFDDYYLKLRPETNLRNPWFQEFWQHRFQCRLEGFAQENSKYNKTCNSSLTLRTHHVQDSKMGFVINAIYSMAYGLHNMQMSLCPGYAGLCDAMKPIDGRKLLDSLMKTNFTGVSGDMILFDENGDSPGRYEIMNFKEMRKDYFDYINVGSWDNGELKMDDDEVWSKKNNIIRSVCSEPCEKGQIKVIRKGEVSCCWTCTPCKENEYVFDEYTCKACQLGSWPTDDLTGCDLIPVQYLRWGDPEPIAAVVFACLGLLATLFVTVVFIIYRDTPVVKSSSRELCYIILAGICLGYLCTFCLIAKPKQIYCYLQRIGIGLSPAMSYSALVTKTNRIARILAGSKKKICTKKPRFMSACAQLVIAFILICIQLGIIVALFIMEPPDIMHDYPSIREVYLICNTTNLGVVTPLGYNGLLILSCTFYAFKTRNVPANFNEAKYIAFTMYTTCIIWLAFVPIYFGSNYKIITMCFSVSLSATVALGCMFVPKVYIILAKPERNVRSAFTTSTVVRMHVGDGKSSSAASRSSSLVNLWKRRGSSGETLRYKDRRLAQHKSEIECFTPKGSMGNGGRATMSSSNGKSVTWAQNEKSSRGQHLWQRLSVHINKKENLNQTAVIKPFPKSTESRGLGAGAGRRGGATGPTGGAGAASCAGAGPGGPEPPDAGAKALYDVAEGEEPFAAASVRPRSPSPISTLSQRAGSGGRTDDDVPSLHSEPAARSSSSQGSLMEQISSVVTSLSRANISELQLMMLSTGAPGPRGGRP

The Ki is the equilibrium dissociation constant of an inhibitor or competing ligand from its target. A higher Ki goes with a looser hold on the target. `N[C@]1(C(=O)O)CC[C@@H](C(=O)O)C1`: the Ki in experiment [1] and in experiment [2] was > 10 µM in each case.

With `N[C@@]1(C(=O)O)CC[C@H](C(=O)O)C1` [1S, 3R-ACPD], the Ki in experiment [1] is > 10 µM and 9.3 µM; in experiment [2], > 10 µM and 6.7 µM and 5.3 µM.

In the case of `N[C@@H](Cn1oc(=O)[nH]c1=O)C(=O)O` [2-amino-3-(3,5-dioxo[1,2,4]oxadiazolidin-2-yl)propionic acid], the Ki in experiment [1] is 0.26 µM; in experiment [2], 0.022 µM and 0.047 µM.

For `NC(C(=O)O)c1cc(=O)[nH]o1` (stereo not given) [Amino-(3-hydroxy-isoxazol-5-yl)-acetic acid(Ibotenic acid)], the Ki in experiment [1] is > 10 µM; in experiment [2], 2.87 µM and 1.93 µM.

Consider `N[C@@H](CCC(=O)O)C(=O)O` [L-Glutamic acid], for which the Ki in experiment [1] is > 10 µM; in experiment [2] it was 9.75 µM and 7.67 µM.
